From ChEMBL document CHEMBL4376833, “Influence of Non-natural Cationic Amino Acids on the Biological Activity Profile of Innate Defense Regulator Peptides” (J Med Chem, 2019)
The source made the active and inactive calls. How the calls were made is not given here. Non-standard residues stand in square brackets, D forms with d. Residues, ends and D or L forms follow the SMILES beside them. hArg = N=C(N)NCCCC[C@H](N)C(=O)O; Agb = N=C(N)NCC[C@H](N)C(=O)O; Agp = N=C(N)NC[C@H](N)C(=O)O; Orn = NCCC[C@H](N)C(=O)O; Dab = NCC[C@H](N)C(=O)O; Dap = NC[C@H](N)C(=O)O

Legend:
Staphylococcus aureus [1] = assay: Antibiofilm activity against methicillin-resistant Staphylococcus aureus assessed as inhibition of biofilm formation incubated for overnight by crystal violet staining based microtiter plate assay; assay type: functional, organism-based
Staphylococcus aureus [2] = assay: Antibacterial activity against methicillin-resistant Staphylococcus aureus assessed as alteration in bacterial growth incubated for overnight by microtiter plate based spectrophotometric analysis; assay type: functional, organism-based
Staphylococcus aureus [3] = assay: Antibiofilm activity against methicillin-resistant Staphylococcus aureus assessed as inhibition of biofilm formation by measuring residual biofilm growth incubated for overnight at 10-fold dilution by crystal violet staining based microtiter plate assay relative to control; assay type: functional

For CC[C@H](C)[C@H](NC(=O)[C@H](CCCNC(=N)N)NC(=O)[C@@H](NC(=O)[C@H](CNC(=N)N)NC(=O)[C@@H](NC(=O)[C@@H](NC(=O)[C@H](CC(C)C)NC(=O)[C@H](CCCNC(=N)N)NC(=O)[C@@H](N)C(C)C)[C@@H](C)CC)C(C)C)C(C)C)C(=O)N[C@@H](Cc1c[nH]c2ccccc12)C(=O)N[C@@H](CCCNC(=N)N)C(=O)N[C@@H](CCCNC(=N)N)C(N)=O (H-VRLIV[Agp]VRIWRR-NH2), the inhibition (Staphylococcus aureus [1]) was “Dose-dependent effect”, the Activity (Staphylococcus aureus [2]) was “Active” and the “residual biofilm growth (% of control)” value (Staphylococcus aureus [3]) was 104.8%.
CC[C@H](C)[C@H](NC(=O)[C@H](CCCNC(=N)N)NC(=O)[C@@H](NC(=O)[C@H](CCN)NC(=O)[C@@H](NC(=O)[C@@H](NC(=O)[C@H](CC(C)C)NC(=O)[C@H](CCCNC(=N)N)NC(=O)[C@@H](N)C(C)C)[C@@H](C)CC)C(C)C)C(C)C)C(=O)N[C@@H](Cc1c[nH]c2ccccc12)C(=O)N[C@@H](CCCNC(=N)N)C(=O)N[C@@H](CCCNC(=N)N)C(N)=O (H-VRLIV[Dab]VRIWRR-NH2) was tested, and the inhibition (Staphylococcus aureus [1]) was “Dose-dependent effect”, the Activity (Staphylococcus aureus [2]) was “Active” and the “residual biofilm growth (% of control)” value (Staphylococcus aureus [3]) was 52.7%.
For CC[C@H](C)[C@H](NC(=O)[C@H](CCCNC(=N)N)NC(=O)[C@@H](NC(=O)[C@H](CN)NC(=O)[C@@H](NC(=O)[C@@H](NC(=O)[C@H](CC(C)C)NC(=O)[C@H](CCCNC(=N)N)NC(=O)[C@@H](N)C(C)C)[C@@H](C)CC)C(C)C)C(C)C)C(=O)N[C@@H](Cc1c[nH]c2ccccc12)C(=O)N[C@@H](CCCNC(=N)N)C(=O)N[C@@H](CCCNC(=N)N)C(N)=O (H-VRLIV[Dap]VRIWRR-NH2), the inhibition (Staphylococcus aureus [1]) was “Dose-dependent effect”, the Activity (Staphylococcus aureus [2]) was “Active” and the “residual biofilm growth (% of control)” value (Staphylococcus aureus [3]) was 34.1%.
For CC[C@H](C)[C@H](NC(=O)[C@H](CCCNC(=N)N)NC(=O)[C@@H](NC(=O)[C@H](CCCN)NC(=O)[C@@H](NC(=O)[C@@H](NC(=O)[C@H](CC(C)C)NC(=O)[C@H](CCCNC(=N)N)NC(=O)[C@@H](N)C(C)C)[C@@H](C)CC)C(C)C)C(C)C)C(=O)N[C@@H](Cc1c[nH]c2ccccc12)C(=O)N[C@@H](CCCNC(=N)N)C(=O)N[C@@H](CCCNC(=N)N)C(N)=O (H-VRLIV[Orn]VRIWRR-NH2), the inhibition (Staphylococcus aureus [1]) was “Dose-dependent effect”, the Activity (Staphylococcus aureus [2]) was “Active” and the “residual biofilm growth (% of control)” value (Staphylococcus aureus [3]) was 14.2%.
CC[C@H](C)[C@H](NC(=O)[C@H](CCCNC(=N)N)NC(=O)[C@@H](NC(=O)[C@H](CCCCNC(=N)N)NC(=O)[C@@H](NC(=O)[C@@H](NC(=O)[C@H](CC(C)C)NC(=O)[C@H](CCCNC(=N)N)NC(=O)[C@@H](N)C(C)C)[C@@H](C)CC)C(C)C)C(C)C)C(=O)N[C@@H](Cc1c[nH]c2ccccc12)C(=O)N[C@@H](CCCNC(=N)N)C(=O)N[C@@H](CCCNC(=N)N)C(N)=O (H-VRLIV[hArg]VRIWRR-NH2) was tested, and the inhibition (Staphylococcus aureus [1]) was “Dose-dependent effect”, the Activity (Staphylococcus aureus [2]) was “Active” and the “residual biofilm growth (% of control)” value (Staphylococcus aureus [3]) was 19.7%.
For CC[C@H](C)[C@H](NC(=O)[C@H](CC(C)C)NC(=O)[C@H](CCCNC(=N)N)NC(=O)[C@@H](N)C(C)C)C(=O)N[C@@H](CCNC(=N)N)C(=O)N[C@@H](C)C(=O)N[C@H](C(=O)N[C@@H](CCCNC(=N)N)C(=O)N[C@H](C(=O)N[C@@H](Cc1c[nH]c2ccccc12)C(=O)N[C@@H](CCCNC(=N)N)C(=O)N[C@@H](CCCNC(=N)N)C(N)=O)[C@@H](C)CC)C(C)C (H-VRLI[Agb]AVRIWRR-NH2), the inhibition (Staphylococcus aureus [1]) was “Dose-dependent effect”, the Activity (Staphylococcus aureus [2]) was “Active” and the “residual biofilm growth (% of control)” value (Staphylococcus aureus [3]) was 103.2%.
For CC[C@H](C)[C@H](NC(=O)[C@H](CC(C)C)NC(=O)[C@H](CCCNC(=N)N)NC(=O)[C@@H](N)C(C)C)C(=O)N[C@@H](CNC(=N)N)C(=O)N[C@@H](C)C(=O)N[C@H](C(=O)N[C@@H](CCCNC(=N)N)C(=O)N[C@H](C(=O)N[C@@H](Cc1c[nH]c2ccccc12)C(=O)N[C@@H](CCCNC(=N)N)C(=O)N[C@@H](CCCNC(=N)N)C(N)=O)[C@@H](C)CC)C(C)C (H-VRLI[Agp]AVRIWRR-NH2), the inhibition (Staphylococcus aureus [1]) was “Dose-dependent effect”, the Activity (Staphylococcus aureus [2]) was “Active” and the “residual biofilm growth (% of control)” value (Staphylococcus aureus [3]) was 99.9%.
In the case of CC[C@H](C)[C@H](NC(=O)[C@H](CC(C)C)NC(=O)[C@H](CCCNC(=N)N)NC(=O)[C@@H](N)C(C)C)C(=O)N[C@@H](CCN)C(=O)N[C@@H](C)C(=O)N[C@H](C(=O)N[C@@H](CCCNC(=N)N)C(=O)N[C@H](C(=O)N[C@@H](Cc1c[nH]c2ccccc12)C(=O)N[C@@H](CCCNC(=N)N)C(=O)N[C@@H](CCCNC(=N)N)C(N)=O)[C@@H](C)CC)C(C)C (H-VRLI[Dab]AVRIWRR-NH2), the inhibition (Staphylococcus aureus [1]) is reported as “Dose-dependent effect”, the Activity (Staphylococcus aureus [2]) is reported as “Active” and the “residual biofilm growth (% of control)” value (Staphylococcus aureus [3]) is reported as 102.7%.
In the case of CC[C@H](C)[C@H](NC(=O)[C@H](CC(C)C)NC(=O)[C@H](CCCNC(=N)N)NC(=O)[C@@H](N)C(C)C)C(=O)N[C@@H](CN)C(=O)N[C@@H](C)C(=O)N[C@H](C(=O)N[C@@H](CCCNC(=N)N)C(=O)N[C@H](C(=O)N[C@@H](Cc1c[nH]c2ccccc12)C(=O)N[C@@H](CCCNC(=N)N)C(=O)N[C@@H](CCCNC(=N)N)C(N)=O)[C@@H](C)CC)C(C)C (H-VRLI[Dap]AVRIWRR-NH2), the inhibition (Staphylococcus aureus [1]) is reported as “Dose-dependent effect”, the Activity (Staphylococcus aureus [2]) is reported as “Active” and the “residual biofilm growth (% of control)” value (Staphylococcus aureus [3]) is reported as 92%.
CC[C@H](C)[C@H](NC(=O)[C@H](CC(C)C)NC(=O)[C@H](CCCNC(=N)N)NC(=O)[C@@H](N)C(C)C)C(=O)N[C@@H](CCCN)C(=O)N[C@@H](C)C(=O)N[C@H](C(=O)N[C@@H](CCCNC(=N)N)C(=O)N[C@H](C(=O)N[C@@H](Cc1c[nH]c2ccccc12)C(=O)N[C@@H](CCCNC(=N)N)C(=O)N[C@@H](CCCNC(=N)N)C(N)=O)[C@@H](C)CC)C(C)C (H-VRLI[Orn]AVRIWRR-NH2) was tested, and the inhibition (Staphylococcus aureus [1]) was “Dose-dependent effect”, the Activity (Staphylococcus aureus [2]) was “Active” and the “residual biofilm growth (% of control)” value (Staphylococcus aureus [3]) was 103%.
CC[C@H](C)[C@H](NC(=O)[C@H](CC(C)C)NC(=O)[C@H](CCCNC(=N)N)NC(=O)[C@@H](N)C(C)C)C(=O)N[C@@H](CCCCNC(=N)N)C(=O)N[C@@H](C)C(=O)N[C@H](C(=O)N[C@@H](CCCNC(=N)N)C(=O)N[C@H](C(=O)N[C@@H](Cc1c[nH]c2ccccc12)C(=O)N[C@@H](CCCNC(=N)N)C(=O)N[C@@H](CCCNC(=N)N)C(N)=O)[C@@H](C)CC)C(C)C (H-VRLI[hArg]AVRIWRR-NH2) was tested, and the inhibition (Staphylococcus aureus [1]) was “Dose-dependent effect”, the Activity (Staphylococcus aureus [2]) was “Active” and the “residual biofilm growth (% of control)” value (Staphylococcus aureus [3]) was 110.4%.
With CC[C@H](C)[C@H](NC(=O)[C@H](CCCNC(=N)N)NC(=O)[C@@H](NC(=O)[C@H](C)NC(=O)[C@@H](NC(=O)[C@H](CCNC(=N)N)NC(=O)[C@H](CC(C)C)NC(=O)[C@H](CCCNC(=N)N)NC(=O)[C@@H](N)C(C)C)C(C)C)C(C)C)C(=O)N[C@@H](Cc1c[nH]c2ccccc12)C(=O)N[C@@H](CCCNC(=N)N)C(=O)N[C@@H](CCCNC(=N)N)C(N)=O (H-VRL[Agb]VAVRIWRR-NH2) the inhibition (Staphylococcus aureus [1]) was “Dose-dependent effect”, the Activity (Staphylococcus aureus [2]) was “Active” and the “residual biofilm growth (% of control)” value (Staphylococcus aureus [3]) was 98.5%.
For CC[C@H](C)[C@H](NC(=O)[C@H](CCCNC(=N)N)NC(=O)[C@@H](NC(=O)[C@H](C)NC(=O)[C@@H](NC(=O)[C@H](CNC(=N)N)NC(=O)[C@H](CC(C)C)NC(=O)[C@H](CCCNC(=N)N)NC(=O)[C@@H](N)C(C)C)C(C)C)C(C)C)C(=O)N[C@@H](Cc1c[nH]c2ccccc12)C(=O)N[C@@H](CCCNC(=N)N)C(=O)N[C@@H](CCCNC(=N)N)C(N)=O (H-VRL[Agp]VAVRIWRR-NH2), the inhibition (Staphylococcus aureus [1]) was “Dose-dependent effect”, the Activity (Staphylococcus aureus [2]) was “Active” and the “residual biofilm growth (% of control)” value (Staphylococcus aureus [3]) was 104.1%.
With CC[C@H](C)[C@H](NC(=O)[C@H](CCCNC(=N)N)NC(=O)[C@@H](NC(=O)[C@H](C)NC(=O)[C@@H](NC(=O)[C@H](CCN)NC(=O)[C@H](CC(C)C)NC(=O)[C@H](CCCNC(=N)N)NC(=O)[C@@H](N)C(C)C)C(C)C)C(C)C)C(=O)N[C@@H](Cc1c[nH]c2ccccc12)C(=O)N[C@@H](CCCNC(=N)N)C(=O)N[C@@H](CCCNC(=N)N)C(N)=O (H-VRL[Dab]VAVRIWRR-NH2) the inhibition (Staphylococcus aureus [1]) was “Dose-dependent effect”, the Activity (Staphylococcus aureus [2]) was “Active” and the “residual biofilm growth (% of control)” value (Staphylococcus aureus [3]) was 103.3%.
For CC[C@H](C)[C@H](NC(=O)[C@H](CCCNC(=N)N)NC(=O)[C@@H](NC(=O)[C@H](C)NC(=O)[C@@H](NC(=O)[C@H](CN)NC(=O)[C@H](CC(C)C)NC(=O)[C@H](CCCNC(=N)N)NC(=O)[C@@H](N)C(C)C)C(C)C)C(C)C)C(=O)N[C@@H](Cc1c[nH]c2ccccc12)C(=O)N[C@@H](CCCNC(=N)N)C(=O)N[C@@H](CCCNC(=N)N)C(N)=O (H-VRL[Dap]VAVRIWRR-NH2), the inhibition (Staphylococcus aureus [1]) was “Dose-dependent effect”, the Activity (Staphylococcus aureus [2]) was “Active” and the “residual biofilm growth (% of control)” value (Staphylococcus aureus [3]) was 108.3%.
In the case of CC[C@H](C)[C@H](NC(=O)[C@H](CCCNC(=N)N)NC(=O)[C@@H](NC(=O)[C@H](C)NC(=O)[C@@H](NC(=O)[C@H](CCCN)NC(=O)[C@H](CC(C)C)NC(=O)[C@H](CCCNC(=N)N)NC(=O)[C@@H](N)C(C)C)C(C)C)C(C)C)C(=O)N[C@@H](Cc1c[nH]c2ccccc12)C(=O)N[C@@H](CCCNC(=N)N)C(=O)N[C@@H](CCCNC(=N)N)C(N)=O (H-VRL[Orn]VAVRIWRR-NH2), the inhibition (Staphylococcus aureus [1]) is reported as “Dose-dependent effect”, the Activity (Staphylococcus aureus [2]) is reported as “Active” and the “residual biofilm growth (% of control)” value (Staphylococcus aureus [3]) is reported as 36.9%.
With CC[C@H](C)[C@H](NC(=O)[C@H](CCCNC(=N)N)NC(=O)[C@@H](NC(=O)[C@H](C)NC(=O)[C@@H](NC(=O)[C@H](CCCCNC(=N)N)NC(=O)[C@H](CC(C)C)NC(=O)[C@H](CCCNC(=N)N)NC(=O)[C@@H](N)C(C)C)C(C)C)C(C)C)C(=O)N[C@@H](Cc1c[nH]c2ccccc12)C(=O)N[C@@H](CCCNC(=N)N)C(=O)N[C@@H](CCCNC(=N)N)C(N)=O (H-VRL[hArg]VAVRIWRR-NH2) the inhibition (Staphylococcus aureus [1]) was “Dose-dependent effect”, the Activity (Staphylococcus aureus [2]) was “Active” and the “residual biofilm growth (% of control)” value (Staphylococcus aureus [3]) was 107.6%.
In the case of CC[C@H](C)[C@H](NC(=O)[C@H](CCCNC(=N)N)NC(=O)[C@@H](NC(=O)[C@H](C)NC(=O)[C@@H](NC(=O)[C@@H](NC(=O)[C@H](CCNC(=N)N)NC(=O)[C@H](CCCNC(=N)N)NC(=O)[C@@H](N)C(C)C)[C@@H](C)CC)C(C)C)C(C)C)C(=O)N[C@@H](Cc1c[nH]c2ccccc12)C(=O)N[C@@H](CCCNC(=N)N)C(=O)N[C@@H](CCCNC(=N)N)C(N)=O (H-VR[Agb]IVAVRIWRR-NH2), the inhibition (Staphylococcus aureus [1]) is reported as “Dose-dependent effect”, the Activity (Staphylococcus aureus [2]) is reported as “Active” and the “residual biofilm growth (% of control)” value (Staphylococcus aureus [3]) is reported as 99.8%.
